Laboratory results taken from patent US20240251792A1, “WEED CONTROL METHOD” (SYNGENTA CROP PROTECTION AG, priority 2021, published 2024).
Read-outs that look alike come from different tables or passages of the source.

Key:
Type in all cases: in vivo
weeds and/or crops = experiment: Post-emergence biological efficacy (Table 4); details: 312 h, 250 g/ha, evaluated after 13 days
How it was run: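 Weeds and crops were grown 14 days in a glasshouse, then sprayed post-emergence with compound formulated in acetone/F50 and diluted in 0.2% Genapol X080 to the final dose. Damage was scored after 13 days on a 0–100 scale, where 100 is total damage.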

IPOHE = experiment: Pre-emergence biological efficacy (Table 3); details: Ipomoea hederacea, 312 h, 250 g/ha, after 13 days, read-out: evaluation (100=total damage to plant; 0=no damage to plant)
How it was run: (§1)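 Pre-emergence spray applied one day post-sowing; aqueous solution from 50 g/l AMA-based formulation in 0.2% Genapol X080. Evaluation at 13 days, 0 = no damage, 100 = total damage.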

AMARE [1] = experiment: Pre-emergence biological efficacy (Table 3); details: Amaranthus retroflexus, 312 h, 250 g/ha, after 13 days, read-out: evaluation (100=total damage to plant; 0=no damage to plant)
How it was run: as §1

AMAPA = experiment: Pre-emergence biological efficacy (Table 3); details: 312 h, 250 g/ha, after 13 days, read-out: evaluation (100=total damage to plant; 0=no damage to plant)
How it was run: as §1

SETFA = experiment: Pre-emergence biological efficacy (Table 3); details: Setaria faberi, 312 h, 250 g/ha, after 13 days, read-out: evaluation (100=total damage to plant; 0=no damage to plant)
How it was run: as §1

ECHCG = experiment: Pre-emergence biological efficacy (Table 3); details: Echinochloa crus-galli, 312 h, 250 g/ha, after 13 days, read-out: evaluation (100=total damage to plant; 0=no damage to plant)
How it was run: as §1

ZEAMX = experiment: Pre-emergence biological efficacy (Table 3); details: 312 h, 250 g/ha, after 13 days, read-out: evaluation (100=total damage to plant; 0=no damage to plant)
How it was run: as §1

AMARE [2] = experiment: Biological efficacy, pre-emergence glasshouse test (Table 2); details: 1000 g/ha, after 12 days
Protocol: (§2) Seeds of a variety of test species were shown in unsterilised compost in small pots. After cultivation for one day (pre-emergence) or seven days (post-emergence) in controlled conditions in the glasshouse (at 24/16° C., day/night; 14 hours light; 65% humidity) the plants were sprayed with 1 mg of the active ingredient, formulated in 466 μl of a acetone/water/Tween 20 (49.75:49.75:0.5) solution, which is equivalent to 1000 g/ha. Once the foliage was dry, the pots were kept in the glasshouse (at 24/16° C., day/night; 14 hours light; 65% humidity), and were watered twice daily. After 12 days the test was evaluated and scored (100=total damage to plant, 0=no damage to plant).

LOLPE [3] = experiment: as above; details: 1000 g/ha, after 12 days
Protocol: as §2

DIGSA [4] = experiment: as above; details: 1000 g/ha, after 12 days
Protocol: as §2

STEME [5] = experiment: as above; details: 1000 g/ha, after 12 days
Protocol: as §2

AMARE [6] = experiment: Biological efficacy, post-emergence glasshouse test (Table 2); details: 1000 g/ha, after 12 days
Protocol: as §2

LOLPE [7] = experiment: as above; details: 1000 g/ha, after 12 days
Protocol: as §2

DIGSA [8] = experiment: as above; details: 1000 g/ha, after 12 days
Protocol: as §2

STEME [9] = experiment: as above; details: 1000 g/ha, after 12 days
Protocol: as §2

SMILES	pest or weed control at 250 g/ha (weeds and/or crops; AMAPA, read-out: damage to plant AMAPA (100=total damage; 0=no damage)) [%]	pest or weed control at 250 g/ha (weeds and/or crops; ZEAMX, read-out: damage to plant ZEAMX (100=total damage; 0=no damage)) [%]	pest or weed control at 250 g/ha (weeds and/or crops; Amaranthus retroflexus, AMARE, read-out: damage to plant AMARE (100=total damage; 0=no damage)) [%]	pest or weed control at 250 g/ha (weeds and/or crops; Echinochloa crus-galli, ECHCG, read-out: damage to plant ECHCG (100=total damage; 0=no damage)) [%]	pest or weed control at 250 g/ha (weeds and/or crops; Ipomoea hederacea, IPOHE, read-out: damage to plant IPOHE (100=total damage; 0=no damage)) [%]	pest or weed control at 250 g/ha (weeds and/or crops; Setaria faberi, SETFA, read-out: damage to plant SETFA (100=total damage; 0=no damage)) [%]	pest or weed control at 250 g/ha (IPOHE) [%]	pest or weed control at 250 g/ha (AMARE [1]) [%]	pest or weed control at 250 g/ha (AMAPA) [%]	pest or weed control at 250 g/ha (SETFA) [%]	pest or weed control at 250 g/ha (ECHCG) [%]	plant injury at 250 g/ha (ZEAMX) [%]	score (100=total damage to plant, 0=no damage to plant) (AMARE [2])	score (100=total damage to plant, 0=no damage to plant) (LOLPE [3])	score (100=total damage to plant, 0=no damage to plant) (DIGSA [4])	score (100=total damage to plant, 0=no damage to plant) (STEME [5])	score (100=total damage to plant, 0=no damage to plant) (AMARE [6])	score (100=total damage to plant, 0=no damage to plant) (LOLPE [7])	score (100=total damage to plant, 0=no damage to plant) (DIGSA [8])	score (100=total damage to plant, 0=no damage to plant) (STEME [9])
O=C(O)C(F)(F)c1ccc(OC(F)(F)F)cc1Cl [Compound 1-59, 2-[2-Chloro-4-(trifluoromethoxy)phenyl]-2,2-difluoro-acetic acid]	60	0	60	0	40	10	10	20	20	10	0	0								
COc1ccc(Cl)cc1C(F)(F)C(=O)O [Compound 1-305]													0	0	0	0	50	0	0	0
CCOc1ccccc1C(F)(F)C(=O)O [Compound 1-328]													50	0	0	40	80	0	0	60
CC(C)Oc1ccccc1C(F)(F)C(=O)O [Compound 1-341]													30	10	0	30	80	10	20	60
